Assay results taken from ChEMBL document CHEMBL1201862, “PubChem BioAssay data set” (2004).
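Where inhibition never reached the appropriate level, the endpoint shown equals the highest concentration tested. Otherwise, values were interpolated linearly from a five-concentration, 48-hour dose response in 96-well plates. GI50 is the concentration that inhibits growth by half.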 The source made the active and inactive calls. Rule as the data show it: active = GI50 up to about 1.1 µM and inactive = higher.

Key:
Experiment in all cases: DTP human tumour cell line panel, 48 h
786-0 = tested on: 786-0
COLO 205 = tested on: COLO 205
EKVX = tested on: EKVX
HCC 2998 = tested on: HCC 2998
HT-29 = tested on: HT-29
K562 = tested on: K562
KM12 = tested on: KM12
LOX IMVI = tested on: LOX IMVI
M14 = tested on: M14
MCF7 = tested on: MCF7
MOLT-4 = tested on: MOLT-4
NCI-H522 = tested on: NCI-H522
OVCAR-4 = tested on: OVCAR-4
OVCAR-5 = tested on: OVCAR-5
SF-268 = tested on: SF-268
SK-MEL-28 = tested on: SK-MEL-28
SK-OV-3 = tested on: SK-OV-3
SN12C = tested on: SN12C
UACC-62 = tested on: UACC-62
MDA-N = tested on: MDA-N

Measured: GI50

Clc1cc(OCc2nn3c(Cc4ccccc4)nnc3s2)ccc1OCc1nn2c(Cc3ccccc3)nnc2s1
inactive: 786-0 19.5 µM | COLO 205 > 100 µM | EKVX 17.1 µM | HCC 2998 44.1 µM | HT-29 79.1 µM | K562 95.9 µM | KM12 79.8 µM | LOX IMVI 93.8 µM | M14 87.7 µM | MCF7 50.4 µM | MOLT-4 34.4 µM | NCI-H522 50.1 µM | OVCAR-4 19.4 µM | OVCAR-5 51.5 µM | SF-268 29.8 µM | SK-MEL-28 42.2 µM | SK-OV-3 26.7 µM | SN12C 45.3 µM | UACC-62 40.6 µM

Nc1nc2c(nnn2C2C=C(CO)C(O)C2O)c(=O)[nH]1 (stereo not drawn)
inactive: 786-0 68.5 µM | COLO 205 > 100 µM | EKVX > 100 µM | HCC 2998 > 100 µM | HT-29 > 100 µM | K562 > 100 µM | KM12 > 100 µM | LOX IMVI 27.9 µM | M14 > 100 µM | MOLT-4 42.5 µM | NCI-H522 > 100 µM | OVCAR-4 > 100 µM | OVCAR-5 > 100 µM | SF-268 > 100 µM | SK-MEL-28 > 100 µM | SK-OV-3 > 100 µM | SN12C 94.4 µM | UACC-62 58.6 µM

N#Cc1cc(-c2nc3ccc(F)cc3s2)ccc1N
inactive: 786-0 > 100 µM | COLO 205 28.9 µM | EKVX 31.8 µM | HT-29 > 100 µM | K562 80.4 µM | KM12 > 100 µM | LOX IMVI 74.8 µM | M14 > 100 µM | MCF7 18 µM | MDA-N 22.1 µM | MOLT-4 > 100 µM | NCI-H522 > 100 µM | OVCAR-4 > 100 µM | OVCAR-5 > 100 µM | SF-268 > 100 µM | SK-OV-3 21.8 µM | SN12C > 100 µM | UACC-62 > 100 µM

CCC(O)c1ccc(/N=C/c2ccccc2O)cc1 (stereo not drawn)
inactive: 786-0 > 100 µM | COLO 205 49.9 µM | EKVX > 100 µM | HCC 2998 > 100 µM | HT-29 > 100 µM | K562 > 100 µM | KM12 > 100 µM | LOX IMVI > 100 µM | M14 > 100 µM | MCF7 > 100 µM | MOLT-4 > 100 µM | NCI-H522 > 100 µM | OVCAR-4 > 100 µM | OVCAR-5 > 100 µM | SF-268 > 100 µM | SK-MEL-28 > 100 µM | SK-OV-3 > 100 µM | UACC-62 > 100 µM

CC1=NN(C(=O)Cc2ccccc2)C(=O)/C1=C\c1ccc(O)cc1
inactive: 786-0 > 100 µM | COLO 205 > 100 µM | EKVX > 100 µM | HCC 2998 > 100 µM | HT-29 > 100 µM | K562 > 100 µM | KM12 > 100 µM | LOX IMVI > 100 µM | M14 > 100 µM | MOLT-4 > 100 µM | NCI-H522 > 100 µM | OVCAR-4 > 100 µM | OVCAR-5 > 100 µM | SF-268 > 100 µM | SK-MEL-28 > 100 µM | SK-OV-3 > 100 µM | SN12C > 100 µM | UACC-62 > 100 µM

C/C(=N\c1c2ccccc2nc2ccccc12)N(C)C
inactive: 786-0 24.2 µM | COLO 205 12.6 µM | EKVX 32.7 µM | HT-29 9.48 µM | K562 3.91 µM | LOX IMVI 11.6 µM | M14 11.5 µM | MCF7 25.8 µM | MDA-N 21.6 µM | MOLT-4 12.2 µM | NCI-H522 10.7 µM | OVCAR-4 19 µM | OVCAR-5 20.5 µM | SF-268 27.4 µM | SK-MEL-28 18.4 µM | SK-OV-3 22.8 µM | UACC-62 15.2 µM

CCc1cccc(CC)c1NC(=O)/C(Cl)=C(/Cl)C(=O)O
inactive: 786-0 > 42.1 µM | COLO 205 13.9 µM | EKVX > 56.6 µM | HCC 2998 > 48.2 µM | HT-29 35 µM | K562 11.6 µM | KM12 > 100 µM | LOX IMVI > 100 µM | M14 17.1 µM | MOLT-4 9.25 µM | NCI-H522 10.2 µM | OVCAR-4 17.2 µM | OVCAR-5 > 100 µM | SF-268 40.3 µM | SK-MEL-28 35.3 µM | SK-OV-3 > 100 µM | SN12C 31.1 µM | UACC-62 37.4 µM

CCN1C(=O)C(=C/C=C/C=C2/N(C)c3ccccc3C2(C)C)C(=O)N(CC)C1=S
inactive: 786-0 42.2 µM | COLO 205 > 100 µM | EKVX > 100 µM | HT-29 55.6 µM | K562 58.6 µM | KM12 > 100 µM | LOX IMVI 21.5 µM | M14 > 100 µM | MCF7 > 100 µM | MDA-N > 100 µM | NCI-H522 > 100 µM | OVCAR-4 33 µM | OVCAR-5 > 100 µM | SF-268 99.3 µM | SK-OV-3 36.3 µM | SN12C > 100 µM | UACC-62 > 100 µM
